From ChEMBL document CHEMBL1649312, “Absence of association between piperaquine in vitro responses and polymorphisms in the pfcrt, pfmdr1, pfmrp, and pfnhe genes in Plasmodium falciparum” (Antimicrob Agents Chemother, 2010)

Key:
Assay type in all cases: functional, organism-based
Plasmodium falciparum [1] = experiment: Antimalarial activity against Plasmodium falciparum HB3 assessed as inhibition of [3H] incorporation after 48 hrs by scintillation counter
Plasmodium falciparum [2] = experiment: Antimalarial activity against Plasmodium falciparum IMT 31 assessed as inhibition of [3H] incorporation after 48 hrs by scintillation counter
Plasmodium falciparum [3] = experiment: Antimalarial activity against Plasmodium falciparum IMT 8425 assessed as inhibition of [3H] incorporation after 48 hrs by scintillation counter
Plasmodium falciparum [4] = experiment: Antimalarial activity against Plasmodium falciparum IMT Guy assessed as inhibition of [3H] incorporation after 48 hrs by scintillation counter
Plasmodium falciparum [5] = experiment: Antimalarial activity against Plasmodium falciparum IMT L1 assessed as inhibition of [3H] incorporation after 48 hrs by scintillation counter
Plasmodium falciparum [6] = experiment: Antimalarial activity against Plasmodium falciparum IMT A4 assessed as inhibition of [3H] incorporation after 48 hrs by scintillation counter
Plasmodium falciparum [7] = experiment: Antimalarial activity against Plasmodium falciparum IMT 10354 assessed as inhibition of [3H] incorporation after 48 hrs by scintillation counter
Plasmodium falciparum [8] = experiment: Antimalarial activity against Plasmodium falciparum IMT 9881 assessed as inhibition of [3H] incorporation after 48 hrs by scintillation counter
Plasmodium falciparum [9] = experiment: Antimalarial activity against Plasmodium falciparum 106/1 assessed as inhibition of [3H] incorporation after 48 hrs by scintillation counter
Plasmodium falciparum [10] = experiment: Antimalarial activity against Plasmodium falciparum IMT 10500 assessed as inhibition of [3H] incorporation after 48 hrs by scintillation counter
Plasmodium falciparum [11] = experiment: Antimalarial activity against Plasmodium falciparum PA assessed as inhibition of [3H] incorporation after 48 hrs by scintillation counter
Plasmodium falciparum [12] = experiment: Antimalarial activity against Plasmodium falciparum W2 assessed as inhibition of [3H] incorporation after 48 hrs by scintillation counter
Plasmodium falciparum [13] = experiment: Antimalarial activity against Plasmodium falciparum IMT K4 assessed as inhibition of [3H] incorporation after 48 hrs by scintillation counter
Plasmodium falciparum [14] = experiment: Antimalarial activity against Plasmodium falciparum IMT Vol assessed as inhibition of [3H] incorporation after 48 hrs by scintillation counter
Plasmodium falciparum [15] = experiment: Antimalarial activity against Plasmodium falciparum FCM29 assessed as inhibition of [3H] incorporation after 48 hrs by scintillation counter
Plasmodium falciparum [16] = experiment: Antimalarial activity against Plasmodium falciparum IMT Bres assessed as inhibition of [3H] incorporation after 48 hrs by scintillation counter
Plasmodium falciparum [17] = experiment: Antimalarial activity against Plasmodium falciparum D6 assessed as inhibition of [3H] incorporation after 48 hrs by scintillation counter
Plasmodium falciparum [18] = experiment: Antimalarial activity against Plasmodium falciparum IMT K14 assessed as inhibition of [3H] incorporation after 48 hrs by scintillation counter
Plasmodium falciparum [19] = experiment: Antimalarial activity against Plasmodium falciparum 3D7 assessed as inhibition of [3H] incorporation after 48 hrs by scintillation counter
Plasmodium falciparum [20] = experiment: Antimalarial activity against Plasmodium falciparum IMT 16332 assessed as inhibition of [3H] incorporation after 48 hrs by scintillation counter
Plasmodium falciparum [21] = experiment: Antimalarial activity against Plasmodium falciparum IMT K2 assessed as inhibition of [3H] incorporation after 48 hrs by scintillation counter

Compound | IC50 (Plasmodium falciparum [2]) [nM] | IC50 (Plasmodium falciparum [3]) [nM] | IC50 (Plasmodium falciparum [4]) [nM] | IC50 (Plasmodium falciparum [7]) [nM] | IC50 (Plasmodium falciparum [9]) [nM] | IC50 (Plasmodium falciparum [13]) [nM] | IC50 (Plasmodium falciparum [16]) [nM] | IC50 (Plasmodium falciparum [17]) [nM] | IC50 (Plasmodium falciparum [18]) [nM] | IC50 (Plasmodium falciparum [19]) [nM] | IC50 (Plasmodium falciparum [20]) [nM] | further results
CCNCc1cc(Nc2ccnc3cc(Cl)ccc23)ccc1O [DESETHYL AMODIAQUINE] | 29 | 27 | 45 | 20 | 32 | 113 | 104 | 23 | 166 | 26 | 52 | IC50 (Plasmodium falciparum [1]): 32 nM; IC50 (Plasmodium falciparum [5]): 85 nM; IC50 (Plasmodium falciparum [6]): 123 nM; IC50 (Plasmodium falciparum [8]): 34 nM; IC50 (Plasmodium falciparum [10]): 40 nM; IC50 (Plasmodium falciparum [11]): 119 nM; IC50 (Plasmodium falciparum [12]): 135 nM; IC50 (Plasmodium falciparum [14]): 82 nM; IC50 (Plasmodium falciparum [15]): 314 nM
C=C[C@H]1CN2CC[C@H]1C[C@H]2[C@H](O)c1ccnc2ccc(OC)cc12 [QUININE] | 272 | 138 | 322 | 118 | 135 | 953 | 604 | 48 | 969 | 134 | 240 | IC50 (Plasmodium falciparum [21]): 607 nM
